Test results published in ChEMBL document CHEMBL3044711, “Synthesis, characterization, and antimicrobial activity of some new 2-diazo-benzimidazole derivatives and their Ni(II), Cu(II), and Ag(I) complexes” (2013).
Active and inactive are the calls of the source. The rule behind the calls is not given here.

Key:
Format in all cases: functional
Staphylococcus aureus = assay: Antimicrobial activity against Staphylococcus aureus assessed as diameter of growth inhibition zone at 1 mg/ml after 24 hr by nutrient agar well diffusion method; details: for zone of inhibition at 1000 µg/mL: read-out: DIZ
Bacillus subtilis = assay: Antimicrobial activity against Bacillus subtilis assessed as diameter of growth inhibition zone at 1 mg/ml after 24 hr by nutrient agar well diffusion method; details: for zone of inhibition at 1000 µg/mL: read-out: DIZ
Escherichia coli = assay: Antimicrobial activity against Escherichia coli assessed as diameter of growth inhibition zone at 1 mg/ml after 24 hr by nutrient agar well diffusion method; details: read-out: DIZ
Klebsiella pneumoniae = assay: Antimicrobial activity against Klebsiella pneumoniae assessed as diameter of growth inhibition zone at 1 mg/ml after 24 hr by nutrient agar well diffusion method
Candida albicans = assay: Antimicrobial activity against Candida albicans assessed as diameter of growth inhibition zone at 1 mg/ml after 48 hr by potato dextrose agar well diffusion method
Aspergillus niger = assay: Antimicrobial activity against Aspergillus niger assessed as diameter of growth inhibition zone at 1 mg/ml after 48 hr by potato dextrose agar well diffusion method

Compound	zone of inhibition at 1000 µg/mL (Staphylococcus aureus)	zone of inhibition at 1000 µg/mL (Bacillus subtilis)	zone of inhibition at 1000 µg/mL (Escherichia coli)	inhibition (Klebsiella pneumoniae)	also measured
CC1(C)S[C@@H]2[C@H](NC(=O)[C@H](N)c3ccccc3)C(=O)N2[C@H]1C(=O)O [AMPICILLIN]	30.5 mm	29.5 mm	31.2 mm	inactive	–
N#CC(C#N)/N=N/c1nc2ccccc2[nH]1	–	–	10.8 mm	inactive	inhibition (Staphylococcus aureus): inactive; inhibition (Candida albicans): inactive; inhibition (Bacillus subtilis): inactive; inhibition (Aspergillus niger): inactive
CCOC(=O)C(C#N)/N=N/c1nc2ccccc2[nH]1 (stereo not drawn)	7.5 mm	8 mm	8.5 mm	–	zone of inhibition at 1000 µg/mL (Candida albicans; read-out: DIZ): 9 mm; zone of inhibition at 1000 µg/mL (Aspergillus niger; read-out: DIZ): 8.5 mm; zone of inhibition at 1000 µg/mL (Klebsiella pneumoniae; read-out: DIZ): 9 mm
NYSTATIN	–	–	–	–	inhibition zone (IZ) (Candida albicans): 36 mm; inhibition zone (IZ) (Aspergillus niger): 25 mm
